Here are results for twelve molecules from ChEMBL document CHEMBL4742389, “Cyclohexyl benzamide compounds” (2019).

For experiment [1], the target named is T1, Probable G-protein coupled receptor 142 (Homo sapiens) (UniProt Q7Z601).
T1 sequence (whole entry): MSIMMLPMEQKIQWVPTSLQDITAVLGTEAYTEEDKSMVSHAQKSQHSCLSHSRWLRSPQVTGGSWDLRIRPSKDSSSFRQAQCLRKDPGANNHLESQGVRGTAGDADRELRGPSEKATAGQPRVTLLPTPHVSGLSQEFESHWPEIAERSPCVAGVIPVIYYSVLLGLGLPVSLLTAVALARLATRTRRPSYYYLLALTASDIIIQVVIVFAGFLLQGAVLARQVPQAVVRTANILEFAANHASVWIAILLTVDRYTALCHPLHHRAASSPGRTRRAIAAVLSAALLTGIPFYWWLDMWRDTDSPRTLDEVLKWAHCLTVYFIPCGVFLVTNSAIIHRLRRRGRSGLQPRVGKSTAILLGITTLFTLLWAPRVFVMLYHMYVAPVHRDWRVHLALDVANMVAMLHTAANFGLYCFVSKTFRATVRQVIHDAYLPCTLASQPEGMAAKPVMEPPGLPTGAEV
The experiment in a line: Agonist activity at human GPR142 receptor expressed in HEK293 cells assessed as accumulation of inositol phosphate incubated for 1 hr followed by IP1-d2 addition by HTRF assay relative to control. In kind it is functional, cell-based. The note with it: filed as agonist. (TR-FRET usually uses a lanthanide donor and a delayed reading to cut background.)

The target in experiment [2] is T2, Probable G-protein coupled receptor 142 (Homo sapiens, UniProt Q7Z601).
T2 sequence (Q7Z601 whole entry): T1 sequence (whole entry)
The experiment can be described thus: Agonist activity at human GPR142 receptor expressed in HEK293 cells assessed as accumulation of inositol phosphate incubated for 1 hr followed by IP1-d2 addition by HTRF assay. Type of experiment: functional, cell-based.

The next experiment deals with Mus musculus. The experiment in a line: Antidiabetic activity in po dosed lean C57BL/6J mouse assessed as reduction in glucose level administered 90 mins prior to glucose challenge measured for 60 mins by IPGTT. In kind it is functional. Conditions: 2.5 h, time 150 min.

The structures appear in SMILES notation. Bounds are passed on as bounds.

In the case of `Cc1ncn(C)c1-c1nnc([C@@H]2CCC[C@H](N(C)C(=O)c3cccc(Cl)c3)C2)[nH]1`, the Efficacy in experiment [1] came to 120%.
For `Cc1ncn(CC(F)F)c1-c1nnc([C@H]2CCC[C@@H](N(C)C(=O)c3cccc(C(F)(F)F)c3)C2)[nH]1`, the EC50 (commonly the midpoint of the concentration-response curve) in experiment [2] was under 120 nM. Besides, the Efficacy in experiment [1] turned out to be 120%.
The matching figures for `Cc1nc[nH]c1-c1nnc([C@H]2CCC[C@@H](N(C)C(=O)c3cccc(Cl)c3)C2)[nH]1`: under 120 nM and 120%.
On to `Cc1ncc(-c2nnc([C@H]3CCC[C@@H](N(C)C(=O)c4cccc(C(F)(F)F)c4)C3)[nH]2)n1C`, for which, in experiment [2], the EC50 is under 120 nM. Also, the Efficacy in experiment [1] came to 120%.
The matching figures for `Cc1nc[nH]c1-c1nnc([C@H]2CCC[C@@H](N(C)C(=O)c3cccc(C(F)(F)F)c3)C2)[nH]1`: under 120 nM and 120%.
The matching figures for `Cc1ncc(-c2nnc([C@H]3CCC[C@@H](N(C)C(=O)c4cccc(Cl)c4)C3)[nH]2)n1C`: under 120 nM and 120%.
The matching figures for `Cc1ncc(-c2nnc([C@H]3CCC[C@@H](N(C)C(=O)c4cccc(C(F)(F)F)c4)C3)[nH]2)[nH]1`: under 120 nM and 120%.
For the molecule `COCCn1cnc(C)c1-c1nnc([C@H]2CCC[C@@H](N(C)C(=O)c3cccc(Cl)c3)C2)[nH]1`, the EC50 in experiment [2] was under 120 nM. Besides, the Efficacy in experiment [1] worked out at 120%.
Take `Cc1ncn(C)c1-c1nnc([C@H]2CCC[C@@H](N(C)C(=O)c3cccc(Cl)c3)C2)[nH]1`: in the experiment with Mus musculus, the ED50 – broadly, the dose at which the effect has come halfway, by size or by number of responders – was determined as 0.25 mg/kg. For the same molecule, the Efficacy in experiment [1] worked out at 110%.
As for `Cc1ncn(C)c1-c1nnc([C@H]2CCC[C@@H](N(C)C(=O)c3cccc(C(F)(F)F)c3)C2)[nH]1`, in experiment [2], the EC50 was under 120 nM. Moreover, in experiment [1], the Efficacy is 120%.
Turning to `CN(C(=O)c1cccc(C(F)(F)F)c1)[C@@H]1CCC[C@H](c2nnc(-c3cnc4n3CCOC4)[nH]2)C1`, the EC50 in experiment [2] was under 120 nM. In experiment [1], the Efficacy is 120%.
With `Cc1nc[nH]c1-c1nnc([C@H]2CCC[C@@H](N(C)C(=O)c3cccc(OC(F)(F)F)c3)C2)[nH]1`, the EC50 in experiment [2] was under 120 nM. Besides, in experiment [1], the Efficacy worked out at 120%.
